The results in this text go back to patent US20090123979A1, “Methods of reducing the inhibitory effect of a tannin on the enzymatic hydrolysis of cellulosic material” (Novozymes, Inc., priority 2007, published 2009).

In assay [1] the target is T1, Trichoderma reesei CEL7B endoglucanase I (Trichoderma reesei, UniProt P07981).
T1 construct: made in house; host or cells: Aspergillus oryzae JaL250
The assay is described as follows: PASC hydrolysis by CEL7B endoglucanase I with tannic acid. It is filed as biochemical. As to the method:
(§1) The inhibitory effect of tannic acid was determined on Trichoderma reesei CEL7A cellobiohydrolase 1, Trichoderma reesei CEL6A cellobiohydrolase II, Trichoderma reesei CEL7B endoglucanase 1, and Trichoderma reesei CEL5A endoglucanase II using PASC as substrate.
(§2) To quantify the inhibition, tannic acid was evaluated in the hydrolysis of PASC.

The target of assay [2] is T2, Trichoderma reesei CEL5A endoglucanase II (Trichoderma reesei, UniProt P07982).
T2 construct: made in house
T2 sequence (P07982 22-418): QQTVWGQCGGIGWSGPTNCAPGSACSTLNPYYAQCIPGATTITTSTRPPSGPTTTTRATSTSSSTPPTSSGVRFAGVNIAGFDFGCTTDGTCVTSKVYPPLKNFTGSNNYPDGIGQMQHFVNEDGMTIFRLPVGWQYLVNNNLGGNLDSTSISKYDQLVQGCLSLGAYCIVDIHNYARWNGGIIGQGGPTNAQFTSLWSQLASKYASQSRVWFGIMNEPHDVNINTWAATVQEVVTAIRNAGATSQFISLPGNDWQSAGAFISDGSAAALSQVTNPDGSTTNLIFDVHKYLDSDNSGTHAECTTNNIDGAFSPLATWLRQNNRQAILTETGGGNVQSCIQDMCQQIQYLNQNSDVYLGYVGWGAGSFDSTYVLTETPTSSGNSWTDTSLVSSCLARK
The assay is described as follows: PASC hydrolysis by CEL5A endoglucanase II with tannic acid. It is filed as biochemical. As to the method:
as §1, §2

The subject of assay [3] is T3, Cellulolytic Enzyme Composition #1.
T3 construct: other: PASC hydrolysis; mean ± SD; 0.01 g enzyme; Dixon plot linear regression intercept (1/Rate); other: AVICEL; rate from hydrolysis difference (%) at 0 and 6 hours; rate from hydrolysis difference; fused on or other part: The A. oryzae beta-glucosidase is the mature chain secreted behind the Humicola insolens endoglucanase V signal peptide, which is cleaved off
The assay is described as follows: PCS hydrolysis by Cellulolytic Enzyme Composition #1 with added compounds. It is filed as biochemical, Trichoderma reesei. How it is done:
Corn stover was pretreated at the U.S. Department of Energy National Renewable Energy Laboratory (NREL), […], Colo., USA, using dilute sulfuric acid. The following conditions were used for the pretreatment: 1.4 wt % sulfuric acid at 195° C. for 4.5 minutes. According to limit digestion with excess cellulase enzymes, the water-insoluble solids in the pretreated corn stover (PCS) contained 59.5% cellulose. Prior to use, the PCS was washed with a large volume of deionized water until soluble acid and sugars were removed. The dry weight of the water-washed PCS was 19.16%.
The effect of a mixture of tannic acid, ellagic acid, epicatechin, and six lignin constituent compounds (4-hydroxyl-2-methylbenzoic acid, vanillin, coniferyl alcohol, coniferyl aldehyde, ferulic acid, and syringaldehyde) was determined on the hydrolysis of PCS by Cellulolytic Enzyme Composition #1 or Cellulolytic Enzyme Composition #2. […] Cellulolytic Enzyme Composition #1 or Cellulolytic Enzyme Composition #2 was added at 0.25 g per liter. Reactions without the addition of the compounds served as controls. The capped tubes were incubated at 50° C. in an INNOVA® 4080 incubator shaker (New Brunswick Scientific Co., Inc., Edison, N.J., USA) at 150 rpm.
Aliquots of the suspensions, sampled over time, were filtered by centrifugation using a 0.45 μm MULTISCREEN® HV membrane (Millipore, Billerica, Mass., USA) at 2000 rpm for 15 minutes using a SORVALL® RT7 centrifuge (Thermo Fisher Scientific, Waltham, Mass., USA). When not used immediately, the filtered aliquots were frozen at −20° C. Sugar concentrations of the samples diluted in 0.005 M H2SO4 were measured after elution by 0.005 M H2SO4 at a flow rate of 0.4 ml/minute from a 4.6×250 mm AMINEX® HPX-87H column (Bio-Rad, Hercules, Calif., USA) at 65° C. with quantitation by integration of glucose and cellobiose using refractive index detection (CHEMSTATION®, AGILENT® 1100 HPLC, Agilent Technologies, Santa Clara, Calif., USA) calibrated with standards of glucose and cellobiose. The resultant equivalents were used to calculate the percentage of cellulose conversion for each reaction.
The degree of cellulose conversion to glucose plus cellobiose sugars (conversion, %) was calculated using the following equation:
Conversion(%)=(glucose+cellobiose×1.053)(mg/ml)×100×162/cellulose(mg/ml)×180)=(glucose+cellobiose×1.053)(mg/ml)×100/(cellulose(mg/ml)×1.111)
In this equation the factor 1.111 reflects the weight gain in converting cellulose to glucose, and the factor 1.053 reflects the weight gain in converting cellobiose to glucose. Cellulose in PCS was determined by a limit digest of PCS to release glucose and cellobiose.
Example 30 was repeated except that each compound was tested separately. […] Reactions without the addition of each compound served as controls.
The effect of OPC or flavonol on the hydrolysis of PCS by Cellulolytic Enzyme Composition #1 or Cellulolytic Enzyme Composition #2 was determined according to the procedure described in Example 30. OPC and flavonol were present at a concentration of 1 mM. Reactions without the addition of the compounds served as controls.
Methyl gallate and ellagic acid were compared at 10 mM to 1 mM tannic acid in the hydrolysis of PCS by Cellulolytic Enzyme Composition #1.

The target in assay [4] is T3, Cellulolytic Enzyme Composition #1. The assay is described as follows: PASC hydrolysis by Cellulolytic Enzyme Composition #1 with tannic acid. It is filed as biochemical, Trichoderma reesei. Particulars: mean ± SD, 0.01 g enzyme per liter, pH 5.0, 50° C., read-out: I50 (inhibitor concentration leading to 50% loss of hydrolysis rate). An excerpt: Initial hydrolysis rates were obtained from the first two hydrolysis time points (i.e., soluble sugar measurements) (with <20% hydrolysis extent in general, rate=(hydrolysis difference)/(time difference)). Double-reciprocal plots (1/(initial rate) vs 1/[cellulose] as function of tannic acid concentration) indicated a “mixed” type inhibition, but their complexity prevented extraction of simple inhibitor constants. Initial rate vs tannic acid concentration yielded an I50 (inhibitor concentration leading to 50% loss of hydrolysis rate) of 0.2±0.1 or 0.27±0.07 mM on PASC or AVICEL® hydrolysis, respectively

Assay [5] has as its target T4, Trichoderma reesei CEL7A cellobiohydrolase I (Trichoderma reesei, UniProt P62694, INS458P/R459P).
T4 construct: made in house
The experiment in a line: PASC hydrolysis by CEL7A cellobiohydrolase I with tannic acid. It is filed as biochemical. How it is done: as §1, §2

Assay [6] addresses T5, Trichoderma reesei CEL6A cellobiohydrolase II (Trichoderma reesei, UniProt P07987, P359R).
T5 construct: made in house; host or cells: Fusarium venenatum
The assay is described as follows: PASC hydrolysis by CEL6A cellobiohydrolase II with tannic acid. It is filed as biochemical. Particulars: 1 mM tannic acid; 2 g PASC per liter, over 4 hours. As to the method:
as §1

[7] abbreviates: 1 mM tannic acid, 2 g PASC per liter, over 4 hours.
[8] abbreviates: PASC, 0.1 to 0.7 mM tannic acid.
Where [9] appears, read: 50 g PCS, 0.25 g enzyme per liter, methyl gallate and ellagic acid 10 mM, tannic acid 1 mM.

T1 sequence (P07981 23-459): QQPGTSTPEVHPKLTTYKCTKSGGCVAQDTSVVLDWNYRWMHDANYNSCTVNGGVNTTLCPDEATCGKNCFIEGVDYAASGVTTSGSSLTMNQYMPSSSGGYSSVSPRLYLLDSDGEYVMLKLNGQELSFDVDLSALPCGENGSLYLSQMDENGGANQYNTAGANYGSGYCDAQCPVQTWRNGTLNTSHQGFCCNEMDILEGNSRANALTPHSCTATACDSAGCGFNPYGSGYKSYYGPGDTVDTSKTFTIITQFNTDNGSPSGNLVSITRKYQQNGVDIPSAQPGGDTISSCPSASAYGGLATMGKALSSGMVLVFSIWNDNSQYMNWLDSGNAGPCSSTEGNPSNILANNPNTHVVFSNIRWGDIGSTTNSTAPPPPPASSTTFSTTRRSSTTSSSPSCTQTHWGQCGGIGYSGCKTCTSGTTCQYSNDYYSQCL
T4 sequence (P62694 other isoform, or with tags, fused parts or gaps INS458P/R459P): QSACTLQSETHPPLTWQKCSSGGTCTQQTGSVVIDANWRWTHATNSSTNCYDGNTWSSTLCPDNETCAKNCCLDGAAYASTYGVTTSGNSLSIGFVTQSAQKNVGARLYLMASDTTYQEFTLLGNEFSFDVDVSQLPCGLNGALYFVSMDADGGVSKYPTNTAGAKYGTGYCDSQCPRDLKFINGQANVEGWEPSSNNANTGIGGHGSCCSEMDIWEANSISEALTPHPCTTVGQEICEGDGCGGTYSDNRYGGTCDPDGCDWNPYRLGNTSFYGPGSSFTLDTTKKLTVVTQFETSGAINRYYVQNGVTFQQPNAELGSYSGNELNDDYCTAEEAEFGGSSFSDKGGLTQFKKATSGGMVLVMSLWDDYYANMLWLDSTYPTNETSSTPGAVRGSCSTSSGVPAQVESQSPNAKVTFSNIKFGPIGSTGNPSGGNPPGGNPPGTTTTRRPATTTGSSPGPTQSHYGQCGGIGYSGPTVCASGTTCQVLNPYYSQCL
T5 sequence (P07987 25-471 P359R): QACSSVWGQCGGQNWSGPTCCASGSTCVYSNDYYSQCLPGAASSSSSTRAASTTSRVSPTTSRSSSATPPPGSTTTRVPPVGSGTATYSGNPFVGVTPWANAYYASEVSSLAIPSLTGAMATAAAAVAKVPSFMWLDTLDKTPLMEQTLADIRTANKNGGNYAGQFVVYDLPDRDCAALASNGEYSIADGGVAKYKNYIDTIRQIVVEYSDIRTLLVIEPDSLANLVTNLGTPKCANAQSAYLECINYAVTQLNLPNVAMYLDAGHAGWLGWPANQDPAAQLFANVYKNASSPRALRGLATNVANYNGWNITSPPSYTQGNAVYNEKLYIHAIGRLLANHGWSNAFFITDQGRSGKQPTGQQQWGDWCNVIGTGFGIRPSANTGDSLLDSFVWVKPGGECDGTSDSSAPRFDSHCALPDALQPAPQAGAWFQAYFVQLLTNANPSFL

Consider `O=C(OC[C@H]1O[C@@H](OC(=O)c2cc(O)c(O)c(OC(=O)c3cc(O)c(O)c(O)c3)c2)[C@H](OC(=O)c2cc(O)c(O)c(OC(=O)c3cc(O)c(O)c(O)c3)c2)[C@@H](OC(=O)c2cc(O)c(O)c(OC(=O)c3cc(O)c(O)c(O)c3)c2)[C@@H]1OC(=O)c1cc(O)c(O)c(OC(=O)c2cc(O)c(O)c(O)c2)c1)c1cc(O)c(O)c(OC(=O)c2cc(O)c(O)c(O)c2)c1` [tannic acid, Tannic acid], for which the “effect on PASC hydrolysis by CEL7B endoglucanase I” value in assay [1] (setting [7]) is given as “significantly inhibited”. In addition, the IC50 in assay [1] (PASC hydrolysis, mean ± SD, 0.04 g enzyme per liter, pH 5, 50° C., read-out: I50 for CEL7B EGI) is 300 ± 200 µM; in assay [2] (PASC hydrolysis, mean ± SD, 0.04 g enzyme per liter, pH 5, 50° C., read-out: I50 for CEL5A EGII) it was 320 ± 50 µM; in assay [4] it was 200 ± 100 µM; in assay [5], around 1000 µM. Besides, the “type of inhibition (double reciprocal plots), CEL7B EGI” value in assay [1] (setting [8]) is “mixed”. Also, the “effect on PASC hydrolysis by CEL5A endoglucanase II” value in assay [2] (setting [7]) is “significantly inhibited”. Besides, the “type of inhibition (double reciprocal plots), CEL5A EGII” value in assay [2] (setting [8]) is given as “mixed”. For the same compound, the “effect on hydrolysis of PCS by Cellulolytic Enzyme Composition #1” value in assay [3] (1 mM each compound, 43.4 g PCS and 0.25 g enzyme per liter, pH 5.0, 50° C.) is listed as “significantly inhibited”. Besides, in assay [3] (setting [9]), the “loss in initial rate of PCS hydrolysis” value is recorded as around 70%. For the same compound, the “loss in the extent of PCS hydrolysis at day 4” value in assay [3] (setting [9]) was around 60%. In addition, the “effect on PASC hydrolysis by CEL7A cellobiohydrolase I” value in assay [5] (setting [7]) is on record as “significantly inhibited”. In assay [5] (setting [8]), the “type of inhibition (double reciprocal plots), CEL7A CBHI” value is “mixed”. In addition, in assay [6], the “effect on PASC hydrolysis by CEL6A cellobiohydrolase II” value is on record as “significantly inhibited”.
